Where two headings read alike, the source gives them in different places. Where only a bound is given, the exact number is not on record here.

The source of these data is patent publication US8680148B2, “Metallo-desferrioxamine complexes and their use in the treatment of bacterial infections” (priority 2006, dated 2014).

The test system of series [1] is Pseudomonas aeruginosa. In words: Minimal inhibitory concentration on planktonic Pseudomonas aeruginosa, 96-well plates. In kind it is cell-based. Conditions: low iron medium. The text has this: The effect of gallium-desferrioxamine on planktonic Pseudomonas aeruginosa was first examined in a low iron medium. […] When in the stationary phase, Pseudomonas aeruginosa is not effectively killed by antibiotics.
(§1) Bacterial strains and culture conditions. Pseudomonas aeruginosa PAO1 or PAO1 derivatives were used for all experiments except where noted. For flow cell biofilm experiments, strains containing the GFP expression vector pMRP9-1 were used. Both flow cell and disc reactor biofilms were grown in 1% Tryptic Soy Broth (TSB) (Becton Dickinson, Sparks, Md.) as were planktonic cultures. All cultures were incubated at 37° C. unless otherwise indicated. For the static biofilm formation assay we used M63 minimal medium supplemented with glucose (0.2%), arginine (0.4%) and MgSO4 (1 mM).
The minimal inhibitory concentrations (MICs) of various agents were determined by using 96-well plates. Each well contained 100 μl of 1% TSB plus test compound. The inoculum was 5×10^5 Pseudomonas aeruginosa cells per well. To test the effect of agents on survival of stationary phase cells, cultures inoculated with 10^5 cells per ml and incubated for 18 h at 37° C. with aeration were used. The 18-h cultures were centrifuged. The pelleted cells were washed twice and suspended in a volume of fresh medium equal to the original culture volume. […] Viability was determined by plating dilutions on LB agar.

For series [2], the system named is Pseudomonas aeruginosa biofilm. Description: Static biofilm formation in microtiter dish wells (crystal violet binding). In kind it is cell-based. The conditions noted are these: 18 h. How it is done:
as §1
Pseudomonas aeruginosa biofilms were studied in three different ways. To evaluate gallium-desferrioxamine as a biofilm-blocking agent, the biofilm formation under static growth conditions was measured in microtiter dish wells. Biofilms were grown under static conditions in 96-well microtiter dishes for 18 h at 37° C. in M63 medium with or without added agents as indicated. Attached biomass was stained with crystal violet and the degree of crystal violet staining was measured.
FIG. 2 illustrates the biofilm growth of Pseudomonas aeruginosa cells in polyvinylchloride microtiter dish wells after treatment for 18 hours with desferrioxamine, Ga, gentamicin, or desferrioxamine-Ga. The concentrations used for each compound were 1 μM for DFO, Ga and DFO-Ga, and 0.1 μg/mL for Gm. Attached biofilm biomass was determined by measuring crystal violet binding.

Series [3] concerns Pseudomonas aeruginosa biofilm. Description: Flow cell biofilms, confocal microscopy (GFP, propidium iodide). In kind it is cell-based. Conditions: for killing of cells in six-day old biofilm (propidium iodide staining): 24 h. As to the method:
as §1
The development of biofilms under a continuous flow of medium was followed in microscope observation chambers. To visualize biofilms grown under a continuous flow of medium, flow cells and confocal microscopy with an incubation temperature of 25° C. were used. An agent was added to the medium at the beginning of an experiment to determine whether the agent prevented biofilm formation. To determine the affect of an agent on mature biofilms, the biofilm was allowed to grow for six days prior to addition of the test compound. To discriminate live and dead cells, propidium iodide (PI, 30 μM, Sigma Chemical Co., St. Louis, Mo.) was used.
FIG. 3 compares 3D-reconstructed confocal microscope images of six-day old biofilms of Pseudomonas aeruginosa cells expressing GFP treated for 24 hours with gentamicin (0.1 μg/mL), desferrioxamine (1 μM), gallium (1 μM), and gallium-desferrioxamine (1 μM).
FIGS. 4-8 compare the survival of P. aeruginosa in a six-day old biofilms stained with propidium iodide under with different treatment.

For series [4] the following is noted: ferric iron; cited from earlier work.
The conditions of series [5]: trivalent aluminium ions; cited from earlier work.
The conditions of series [6]: divalent ions; cited from earlier work.
Series [7] concerns stationary phase Pseudomonas aeruginosa cells. Description: Survival of stationary phase Pseudomonas aeruginosa cells (plating on LB agar). In kind it is cell-based. Conditions: 24 h. How it is done: The minimal inhibitory concentrations (MICs) of various agents were determined by using 96-well plates. Each well contained 100 μl of 1% TSB plus test compound. The inoculum was 5×10^5 Pseudomonas aeruginosa cells per well. To test the effect of agents on survival of stationary phase cells, cultures inoculated with 10^5 cells per ml and incubated for 18 h at 37° C. with aeration were used. The 18-h cultures were centrifuged. The pelleted cells were washed twice and suspended in a volume of fresh medium equal to the original culture volume. The cells were incubated at 37° C. for an additional 2 h with shaking and then exposed to the test compounds at the indicated concentrations for 24 h. Viability was determined by plating dilutions on LB agar. FIG. 1 illustrates the survival of stationary phase Pseudomonas aeruginosa cells treated for 24 hours with desferrioxamine (DFO), gentamicin (Gm), gallium (Ga), gallium-desferrioxamine (DFO-Ga), DFO and Gm, Ga and Gm, and DFO-Ga and Gm. The concentrations used for each compound were 0.1 mM (shaded) or 1 mM (dark) for DFO, Ga or DFO-Ga and […] for Gm. […] Because gallium-desferrioxamine and gentamicin exert their antimicrobial effects via different mechanisms, the two agents were combined and the combined treatment results in a six-log reduction in viable cells.

Series [8] relates to Pseudomonas aeruginosa biofilm. In words: Spinning disc reactor biofilms, viable cell counts. In kind it is cell-based. The conditions noted are these: 24 h. How it is done:
A spinning disc reactor as a third method was used to study biofilms. The biofilms grown under different conditions were tested and the activity of gallium-desferrioxamine against biofilms grown in a spinning disc reactor under continuous flow with high shear was examined. In this system biofilms are grown under a flow of medium and at high shear forces. After 24 h in a flow of medium, the polycarbonate chips with attached biofilm bacteria were removed from the spinning disc and washed 3 times in PBS. All incubations for spinning disc experiments were at 37° C. These biofilms were then exposed to the indicated agents in water for 24 h. Cells that detached from the biofilm during the treatment were enumerated by plating on LB agar. To estimate the number of remaining attached biofilm cells, the discs were placed in 1 ml PBS and the cells were dispersed by using a tissue homogenizer (Brinkman Homogenizer, Westbury, N.Y.). Viable cell numbers were determined by plating on LB agar. […] Furthermore, when gallium-desferrioxamine and gentamicin are used together, viability is reduced by almost 6 logs, leaving only a few viable cells.

For series [9], the system named is P. aeruginosa clinical isolates biofilms. Description: Spinning disc reactor biofilms of 15 clinical isolates. In kind it is cell-based, Pseudomonas aeruginosa. The conditions noted are these: 24 h. As to the method: To verify that the sensitivities observed with laboratory strain of P. aeruginosa (PAO1) would hold with other clinical isolates of the bacterium, 15 clinical isolates of the same bacterium obtained from CF, eye and wound infected patients were screened. The group of isolates tested included mucoid strains, and strains with a variety of drug resistance profiles. The spinning-disc biofilm reactor system was utilized. In this system biofilms are grown under a flow of medium and at high shear forces. After 24 h in a flow of medium the polycarbonate chips with attached biofilm bacteria were removed from the spinning disc and washed 3 times in PBS. All incubations for spinning disc experiments were at 37° C. These biofilms were then exposed to Gm (50 μg/ml), DFO-Ga (1 mM) or a combination of gallium-desferrioxamine […] in water for 24 h. To estimate the number of remaining attached biofilm cells, we placed the discs in 1 ml PBS and dispersed the cells by using a tissue homogenizer (Brinkman Homogenizer, Westbury, N.Y.). Viable cell numbers were determined by plating on LB agar. […]

Series [10] concerns pvdA-GFP iron starvation promoter fusion. In words: Iron starvation reporter (pvdA-GFP) fluorescence in PAO1. In kind it is cell-based, Pseudomonas aeruginosa. Conditions: 1 mM, 1 h at 37° C. How it is done: To study the effect of DFO-Ga on iron regulation in the cell, a P. aeruginosa PAO1 strain-carrying GFP fused to an iron starvation promoter (pvdA-GFP) was constructed. The promoter is induced under iron limitation. Free living PAO1 carrying pvdA-GFP fusion, i.e., an iron starvation reporter fusion, 10^9 cell/ml in 1% TSB were exposed to […] Ga (1 mM), DFO (1 mM), or DFO-Ga (1 mM) for 1 h at 37° C.

Series [11] relates to Staphylococcus aureus (MRSA strain) biofilm. In words: Spinning disc reactor biofilms of MRSA S. aureus. The series is classed as cell-based. The conditions noted are these: 1 mM, 24 h. As to the method: The effect of gallium-desferrioxamine against the drug resistant bacterial was investigated. The efficacy of DFO-Ga against common biofilm pathogens Staphylococcus aureus (MRSA strain) and Escherichia coli was examined. Biofilms were grown using the spinning disc reactor system as above. Spinning disc reactor biofilms with E. coli or MRSA S. aureus were treated for 24 h. The concentration of DFO-Ga in both treatments was (1 mM). In the E. coli treatment, the concentration of Gm was 10 μg/ml and for the combination of DFO-Ga (1 mM) and Gm (10 μg/ml).
As shown FIG. 12B, DFO-Ga was able to reduce the viable Staphylococcus aureus biofilm bacteria by approximately 3 log units.

For series [12] the following is noted: systemic treatment, ischemia and reperfusion; cited from earlier work.
Series [13] has as its system Pseudomonas aeruginosa. Description: Rabbit cornea infection (keratitis) with P. aeruginosa, topical treatment. The series is classed as in vivo. Conditions: 0.5% gentamicin eye drops.
For series [14] the following is noted: topical application, alkali burn; cited from earlier work.

`CC(=O)N(O)CCCCCNC(=O)CCC(=O)N(O)CCCCCNC(=O)CCC(=O)N(O)CCCCCN` [desferrioxamine]: the “growth inhibition (highest concentration without inhibition)” value in series [1] is over 1 mM. Besides, the biofilm formation entry in series [2] (1 μM) is recorded as “does not affect biofilm formation”. Besides, in [3] (1 mM), the “killing of cells in six-day old biofilm (propidium iodide staining)” value (“killing of cells in six-day old biofilm” for short) is recorded as “does not appear to kill cells in mushroom-like structures”. Besides, the complex formation constant is 10^31 in [4], 10^25 in series [5] and ≤ 10^14 in series [6].
Turning to `CC(=O)N([O-])CCCCCNC(=O)CCC(=O)N([O-])CCCCCNC(=O)CCC(=O)N([O-])CCCCCN.[Ga+3]` [gallium-desferrioxamine], in [1], the “minimal inhibitory concentration (MIC)” value stood at 32 µM. In addition, the “killing relative to gentamicin” value in [7] (1 mM, versus gentamicin 10 μg per ml) is given as 10-100 times. Also, the biofilm formation result in [2] (1 μM) was “effectively blocked”. The “biofilm formation under continuous flow” value in [3] (1 μM, flow cell) is recorded as “completely blocks biofilm formation”. For the same compound, in [3] (1 mM), the “killing of cells in six-day old biofilm” value is listed as “causes death of cells throughout the mushroom-like structures”. The “decrease in cell counts” value in series [8] (1 mM) is on record as 3-4 log. In [9] (DFO-Ga 1 mM), the log killing worked out at 3.02 log. Moreover, the “induction in relative fluorescence compared to non-treated controls” value in series [10] was “four”. The “reduction of viable Staphylococcus aureus biofilm bacteria” value in series [11] was “approximately 3 log units”. In addition, in [12], the “damage to the retina” value is listed as “reduced damage to the retina”.
Turning to `[Ga]` [gallium], in series [2] (1 μM), the biofilm formation result was “effectively blocked”. Also, in series [3] (1 mM), the “killing of cells in six-day old biofilm” value is “killing of cells in the outer regions of the biofilm only”. The reduction in fluorescence entry in [10] is on record as “two”.
For gentamicin, the reduction of viability result in [7] (gentamicin 10 μg per ml) is “three”. Moreover, the biofilm formation entry in series [2] (0.1 μg per ml) was “does not affect biofilm formation”. Also, the “killing of cells in six-day old biofilm” value in [3] (50 μg/ml) is “killing of cells in the outer regions of the biofilm only”. Moreover, in [8] (50 μg/mL), the “decrease in cell counts” value came to 2 log. Also, the log killing in [9] (Gm 50 μg/ml) is recorded as 0.95 log. Besides, in series [13], the scarring entry is “significant scarring persists” and the “time to resolution of the infection” value was at most 120 h.
Regarding zinc-desferrioxamine, the “damage to the retina” value in series [12] is given as “reduced damage to the retina”. For the same compound, the corneal damage result in series [14] is “reduced corneal damage”.
